# Assay results: patent US6066649A, “Drug for cardiovascular diseases” (Podzuweit; Thomas, priority 1992, dated 2000)
# Read-outs that look alike come from different tables or passages of the source.
# Legend:
# cGMP-stimulated PDE II [1] = assay: Test for PDE activity, inhibition of cytosolic cGMP-stimulated PDE II from human myocardium; type: biochemical; settings: cGMP 1 μM; in words; swine and human myocardium
# Description: (§1) Samples of the left ventricular papillary muscles were obtained with the consent of patient who underwent an exchange of a mitral flap in the Universitats-Krankenhaus Gieβen, FRG. The myocardium samples of pigs (male pigs of the German breed of swine, 25 to 30 kg body weight) were obtained following excision of the hearts under Nembutal anesthesia. The samples were immediately frozen in liquid nitrogen and were then pulverized in a high speed mill and pre-cooled in liquid nitrogen. […] All of the following steps were conducted at 4° C. The homogenate was centrifuged at 48,000 g for 30 minutes. […] The column was washed with 200 ml of buffer; and the PDE activities were eluted with a linear gradient ranging from 0.05 to 1 M of sodium acetate in buffer (flow time of the gradient: 500 minutes). The flow rate was 1 ml/min. 5 ml fractions were obtained and tested for PDE activity.
# (§2) The PDE activity was measured with an off line liquid scintillation spectrometry using HPLC. […] The enzyme activity was measured at 25° C. with 10 minute incubations. The reaction was started with the addition of 50 μl of enzyme solution and terminated through injection of 20 μl of 60% perchloric acid. Aliquots of 20 μl of acidic supernatant were siphoned off and injected into an automated HPLC system (column LiChrospher RP-18e) (250×4 mm; 5 μm packing).
# (§3) The data were fitted with four parameters with the aid of the sigmoidal logistic function.
# (§4) The soluble PDE isoenzymes from swine and human myocardium were severed by means of anion exchange chromatography using DEAE-sepharose CL-6B. The enzyme activities were called PDE I to IV according to the nomenclature of J. A. Beavo and D. H. Reifsnyder. The PDE II activity was stimulated by means of cGMP (1 μM).
# adenosine deaminase [2] = settings: cited from earlier work; for inhibition of adenosine deaminase: in words
# cGMP-stimulated PDE II [3] = molecular target: T1, cGMP-stimulated PDE II (Homo sapiens, UniProt O00408); assay: Test for PDE activity, inhibition of cytosolic cGMP-stimulated PDE II from human myocardium; type: biochemical
# T1 construct: cytosolic cGMP-stimulated PDE II isoenzyme from human myocardium; from tissue; host or cells: human left ventricular papillary muscle, soluble extract, DEAE-Sepharose CL-6B peak fraction
# T1 sequence (O00408 1-920 isoform O00408-2): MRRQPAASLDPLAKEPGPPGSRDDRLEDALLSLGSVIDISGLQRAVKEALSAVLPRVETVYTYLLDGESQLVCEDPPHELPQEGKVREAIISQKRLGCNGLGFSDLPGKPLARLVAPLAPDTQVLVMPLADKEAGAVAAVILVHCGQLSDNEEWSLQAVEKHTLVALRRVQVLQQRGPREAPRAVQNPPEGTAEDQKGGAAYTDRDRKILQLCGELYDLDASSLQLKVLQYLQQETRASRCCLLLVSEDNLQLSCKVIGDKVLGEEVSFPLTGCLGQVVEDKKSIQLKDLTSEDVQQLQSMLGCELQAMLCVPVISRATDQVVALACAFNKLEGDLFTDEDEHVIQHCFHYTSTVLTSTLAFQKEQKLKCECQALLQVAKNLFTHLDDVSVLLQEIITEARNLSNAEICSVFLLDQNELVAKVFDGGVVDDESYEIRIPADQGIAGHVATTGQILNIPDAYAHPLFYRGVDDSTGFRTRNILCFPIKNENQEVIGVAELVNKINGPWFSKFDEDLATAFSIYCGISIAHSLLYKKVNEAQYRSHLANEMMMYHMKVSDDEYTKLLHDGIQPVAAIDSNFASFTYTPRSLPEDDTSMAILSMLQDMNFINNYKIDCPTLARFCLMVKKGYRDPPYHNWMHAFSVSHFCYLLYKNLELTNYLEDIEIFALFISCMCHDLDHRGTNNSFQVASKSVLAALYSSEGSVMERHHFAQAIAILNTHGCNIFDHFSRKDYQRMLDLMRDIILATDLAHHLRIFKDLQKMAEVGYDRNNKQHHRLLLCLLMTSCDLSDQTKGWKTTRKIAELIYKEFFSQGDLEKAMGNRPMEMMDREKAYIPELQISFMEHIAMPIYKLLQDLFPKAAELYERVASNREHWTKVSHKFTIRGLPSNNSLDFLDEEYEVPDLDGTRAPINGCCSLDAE
# Description: as §1, §2, §3, §4
# cGMP-stimulated PDE II [4] = molecular target: T2, cGMP-stimulated PDE II (Sus scrofa, UniProt F1SUV3); assay: Test for PDE activity, inhibition of soluble cGMP-stimulated PDE II from swine myocardium; type: biochemical; settings: 1 μM cAMP or cGMP substrate, 25° C., pH 7.5
# T2 construct: soluble cGMP-stimulated PDE II from swine myocardium; from tissue; host or cells: myocardium of male German breed swine, soluble extract, DEAE-Sepharose CL-6B peak fraction
# T2 sequence (F1SUV3 1-945): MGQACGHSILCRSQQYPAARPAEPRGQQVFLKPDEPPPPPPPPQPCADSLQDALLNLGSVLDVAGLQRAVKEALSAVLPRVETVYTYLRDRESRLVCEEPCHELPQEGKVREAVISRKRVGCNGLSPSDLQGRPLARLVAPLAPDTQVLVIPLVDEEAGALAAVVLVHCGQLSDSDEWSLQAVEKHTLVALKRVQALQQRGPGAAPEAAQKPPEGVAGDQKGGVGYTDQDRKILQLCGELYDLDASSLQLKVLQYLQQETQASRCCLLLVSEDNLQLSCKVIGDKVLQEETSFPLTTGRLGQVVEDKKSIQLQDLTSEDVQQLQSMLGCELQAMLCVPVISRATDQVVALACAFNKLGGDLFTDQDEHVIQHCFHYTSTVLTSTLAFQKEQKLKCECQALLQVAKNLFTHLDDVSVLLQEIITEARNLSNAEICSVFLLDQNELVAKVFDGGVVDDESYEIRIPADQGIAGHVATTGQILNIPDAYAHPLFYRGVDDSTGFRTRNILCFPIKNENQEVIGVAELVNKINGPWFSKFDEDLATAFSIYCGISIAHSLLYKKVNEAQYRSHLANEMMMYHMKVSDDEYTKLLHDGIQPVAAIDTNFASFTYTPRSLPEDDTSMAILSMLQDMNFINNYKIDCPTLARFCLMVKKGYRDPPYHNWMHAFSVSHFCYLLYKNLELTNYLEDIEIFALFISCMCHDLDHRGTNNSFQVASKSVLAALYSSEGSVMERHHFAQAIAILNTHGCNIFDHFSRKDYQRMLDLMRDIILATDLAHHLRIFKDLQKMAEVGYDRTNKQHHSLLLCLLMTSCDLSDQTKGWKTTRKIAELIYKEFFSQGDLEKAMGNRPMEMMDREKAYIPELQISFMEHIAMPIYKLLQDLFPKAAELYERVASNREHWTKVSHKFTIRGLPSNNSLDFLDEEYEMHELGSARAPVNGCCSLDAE
# Description: (§5) Samples of the left ventricular papillary muscles were obtained with the consent of patient who underwent an exchange of a mitral flap in the Universitats-Krankenhaus Gieβen, FRG. The myocardium samples of pigs (male pigs of the German breed of swine, 25 to 30 kg body weight) were obtained following excision of the hearts under Nembutal anesthesia. The samples were immediately frozen in liquid nitrogen and were then pulverized in a high speed mill and pre-cooled in liquid nitrogen. The frozen tissue powder was sieved through a screen made of stainless steel (-196° C.) (mesh size: 0.315 mm) in an homogenizing buffer (4° C.) (1 ml per 100 mg of powder), comprising (final concentrations): 20 mM of bis-tris, 2 mM of EDTA, 5 mM of 2-mercaptoethanol, 2 mM of benzamidine, 50 μM of phenylmethylsulfonylfluoride, 50 mM of sodium acetate, pH 6.5. All of the following steps were conducted at 4° C. The homogenate was centrifuged at 48,000 g for 30 minutes. […]
# (§6) The PDE activity was measured with an off line liquid scintillation spectrometry using HPLC. […] The enzyme activity was measured at 25° C. with 10 minute incubations. […]
# (§7) The radioactive substrates and the products of the PDE reaction were determined quantitatively using a RACKBETA 1219 liquid scintillation counter (LKB Wallac, Freiburg, FRG). […]
# [5] = system: other cyclic nucleotide phosphodiesterases; assay: Test for PDE activity, inhibition of the other cyclic nucleotide phosphodiesterases from swine myocardium; type: biochemical; settings: 1 μM cAMP or cGMP substrate, 25° C., pH 7.5
# Description: as §5, §6, §7
# adenosine deaminase [6] = settings: ADA and cGMP-stimulated PDE
# human ADA = settings: read-out: K1 value for human ADA; racemic (±)-EHNA; cited from earlier work
# ADA = settings: in words; cited from earlier work
# PDE I = assay: Test for PDE activity, inhibition of soluble PDE I from human myocardium; type: biochemical; settings: 1 μM cAMP or cGMP substrate, 25° C., pH 7.5
# Description: as §5, §6, §7
# arrhythmias = assay: Antiarrhythmic action; settings: in words; no test data given
# [7] = cited from earlier work
# [8] = system: cGMP content of the rat aorta; settings: as a function of the dose; cited from earlier work
# mouse, rat and rabbit = settings: cited from earlier work
compound,measurement,setting,value
Nc1nc2c(ncn2[C@@H]2O[C@@H]3COP(=O)(O)O[C@H]3[C@H]2O)c(=O)[nH]1 [cGMP],effect of cGMP on PDE II activity,cGMP-stimulated PDE II [1],stimulated
Nc1ncnc2c1ncn2[C@@H]1O[C@H](CO)[C@@H](O)[C@H]1O [adenosine],Km,adenosine deaminase [2]; substrate of adenosine deaminase,20 µM
"CCCCCC[C@H]([C@H](C)O)n1cnc2c(N)ncnc21 (relative stereo) [EHNA, erythro-9-(2-hydroxy-3-nonyl)-adenine]","inhibition of the cGMP-stimulated enzyme at the concentration at which inhibition of the PDE isotypes I, III and IV began",cGMP-stimulated PDE II [3]; human myocardium,more than 99%
same,IC50,"cGMP-stimulated PDE II [3]; human myocardium, 1 μM cAMP or cGMP substrate, 25° C., pH 7.5",800 nM
same,"activity as inhibitor of PDE II compared with papaverine, on a molar basis",cGMP-stimulated PDE II [3]; in words,more active
same,IC50,cGMP-stimulated PDE II [4],2000 nM
same,IC50,[5],> 100000 nM
same,doses having inhibiting effects on both enzymes (adenosine deaminase and cGMP-stimulated PDE),adenosine deaminase [6],more than 10^-7 M
same,Ki,"adenosine deaminase [2]; classical competitive inhibition, first bonding step, read-out: inhibition constant K1 of the initial bonding step",200 nM
same,Ki,"adenosine deaminase [2]; fixed enzyme-inhibitor complex after rearrangement, read-out: total inhibition constant",1.7 nM
same,inhibition of adenosine deaminase,adenosine deaminase [2],inhibiting effects both on adenosine deaminase and cGMP-stimulated PDE
same,Ki,human ADA,4 nM
same,concentrations of EHNA required to inhibit ADA in intact cells,ADA,much higher concentrations
"CCCOc1ccccc1-c1nc2nn[nH]c2c(=O)[nH]1 [2-o-propoxyphenyl-8-azapurine-6-one, 1,4-dihydro-5-(2-propoxyphenyl-7H-1,2,3-triazolo[4,5-d]pyrimidine-7-one)]",IC50,PDE I,8000 nM
same,antiarrhythmic action,arrhythmias,strong antiarrhythmic agents
same,inhibition of adenosine deaminase,adenosine deaminase [2],does not inhibit the adenosine deaminase
same,solubility in acetone and ethanol and weakly basic solutions,[7]; acetone and ethanol and weakly basic solutions,dissolves in acetone and ethanol and weakly basic solutions
same,solubility in water,[7]; water,slightly soluble in water
same,effect on cGMP content of the rat aorta,[8],raises the cGMP content
same,acute oral LD50,"mouse, rat and rabbit; in vivo, po","1,400-2,000 mg/kg"
same,toxicity,"mouse, rat and rabbit; in words",low toxicity
